The source made the active and inactive calls.
Tests used:
[1] = molecular target: T1, Neuropeptide Y receptor type 2 (Homo sapiens, UniProt P49146); format: functional, cell-based;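 also: HEK293 cells expressing the receptor and a CNG channel; stimulus was NPY near EC95 followed by isoproterenol to raise cAMP; antagonist potency measured as restoring cAMP signal that NPY suppresses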
T1 sequence (P49146 whole entry): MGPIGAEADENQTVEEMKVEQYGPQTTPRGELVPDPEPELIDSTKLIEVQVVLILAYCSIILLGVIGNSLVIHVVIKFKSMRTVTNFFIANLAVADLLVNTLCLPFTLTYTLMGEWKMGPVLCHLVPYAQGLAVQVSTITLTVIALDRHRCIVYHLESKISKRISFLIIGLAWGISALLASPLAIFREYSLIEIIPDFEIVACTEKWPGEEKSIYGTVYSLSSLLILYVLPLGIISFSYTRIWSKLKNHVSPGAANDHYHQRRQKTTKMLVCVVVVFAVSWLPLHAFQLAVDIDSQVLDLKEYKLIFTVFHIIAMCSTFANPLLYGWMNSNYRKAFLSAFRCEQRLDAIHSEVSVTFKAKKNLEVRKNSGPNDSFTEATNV

cells [2] = format: functional, cell-based
[3] = molecular target: T2, Neuropeptide Y receptor type 1 (Homo sapiens, UniProt P25929); format: functional;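 also: HEK293 cells with a CNG channel challenged with NPY then isoproterenol; potency as antagonist that reverses NPY suppression of cAMP signal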
T2 sequence (P25929 whole entry): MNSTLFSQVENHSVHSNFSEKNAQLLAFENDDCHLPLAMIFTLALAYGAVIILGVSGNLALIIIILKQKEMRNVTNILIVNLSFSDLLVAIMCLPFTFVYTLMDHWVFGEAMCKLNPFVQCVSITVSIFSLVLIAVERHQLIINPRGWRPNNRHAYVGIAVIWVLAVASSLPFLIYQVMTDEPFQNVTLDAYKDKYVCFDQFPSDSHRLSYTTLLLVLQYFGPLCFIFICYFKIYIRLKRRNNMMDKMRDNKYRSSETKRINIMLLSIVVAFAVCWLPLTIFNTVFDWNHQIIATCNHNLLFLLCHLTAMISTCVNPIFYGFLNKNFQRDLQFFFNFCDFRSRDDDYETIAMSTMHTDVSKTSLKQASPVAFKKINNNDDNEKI

cells [4] = format: functional, cell-based; remark: listed apart in the source
Ion channel NompC = Ion channel NompC (Danio rerio, UniProt Q7T1G6); experiment: Fluorescence counterscreen assay for TRPML3 agonists: dose response cell-based high-throughput screening assay to identify agonists of the transient receptor potential channel N1 (TRPN1). [Related pubchem assays: 1526, 1424, 1448 ]; format: functional
Ion channel NompC, sequence (Q7T1G6 whole entry): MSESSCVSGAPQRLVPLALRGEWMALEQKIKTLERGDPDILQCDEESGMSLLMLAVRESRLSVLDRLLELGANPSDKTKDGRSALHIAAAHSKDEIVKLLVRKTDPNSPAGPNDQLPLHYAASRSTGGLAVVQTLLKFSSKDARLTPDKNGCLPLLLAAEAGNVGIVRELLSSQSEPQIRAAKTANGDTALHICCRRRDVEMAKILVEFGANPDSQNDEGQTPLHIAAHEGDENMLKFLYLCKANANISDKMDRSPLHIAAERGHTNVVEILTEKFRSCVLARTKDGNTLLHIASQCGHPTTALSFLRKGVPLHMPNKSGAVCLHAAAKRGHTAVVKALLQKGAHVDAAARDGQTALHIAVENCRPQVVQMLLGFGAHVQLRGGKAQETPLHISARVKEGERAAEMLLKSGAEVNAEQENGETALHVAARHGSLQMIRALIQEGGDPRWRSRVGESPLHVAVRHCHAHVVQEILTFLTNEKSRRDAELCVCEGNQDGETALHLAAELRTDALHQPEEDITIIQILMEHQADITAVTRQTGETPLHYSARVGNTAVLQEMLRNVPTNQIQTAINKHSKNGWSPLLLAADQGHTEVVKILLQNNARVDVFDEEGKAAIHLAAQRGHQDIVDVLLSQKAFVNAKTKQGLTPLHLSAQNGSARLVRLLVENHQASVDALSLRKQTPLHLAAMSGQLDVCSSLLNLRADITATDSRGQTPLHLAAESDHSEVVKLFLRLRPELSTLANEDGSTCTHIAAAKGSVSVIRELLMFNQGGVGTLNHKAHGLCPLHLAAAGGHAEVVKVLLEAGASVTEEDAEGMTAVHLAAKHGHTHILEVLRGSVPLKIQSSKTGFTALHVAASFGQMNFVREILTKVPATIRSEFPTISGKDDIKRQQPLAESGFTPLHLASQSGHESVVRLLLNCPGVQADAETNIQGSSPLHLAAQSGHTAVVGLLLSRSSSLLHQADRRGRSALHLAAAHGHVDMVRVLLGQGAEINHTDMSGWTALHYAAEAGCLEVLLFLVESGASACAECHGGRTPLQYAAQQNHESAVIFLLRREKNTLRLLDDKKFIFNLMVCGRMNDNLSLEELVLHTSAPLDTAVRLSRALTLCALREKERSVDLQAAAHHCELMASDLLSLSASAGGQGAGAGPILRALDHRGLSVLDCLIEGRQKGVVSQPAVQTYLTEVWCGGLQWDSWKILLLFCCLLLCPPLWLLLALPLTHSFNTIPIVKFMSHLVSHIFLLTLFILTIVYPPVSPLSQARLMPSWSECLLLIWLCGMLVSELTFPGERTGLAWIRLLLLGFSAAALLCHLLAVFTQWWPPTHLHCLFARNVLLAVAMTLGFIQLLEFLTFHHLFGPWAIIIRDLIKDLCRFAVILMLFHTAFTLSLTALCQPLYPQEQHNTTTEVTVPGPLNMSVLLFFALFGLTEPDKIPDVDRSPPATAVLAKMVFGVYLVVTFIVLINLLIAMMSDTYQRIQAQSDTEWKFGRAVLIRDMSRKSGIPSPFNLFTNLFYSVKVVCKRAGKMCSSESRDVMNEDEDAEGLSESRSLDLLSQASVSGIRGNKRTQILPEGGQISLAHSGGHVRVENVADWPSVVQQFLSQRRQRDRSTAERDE

Mucolipin-3 = Mucolipin-3 (Homo sapiens, UniProt Q8TDD5); experiment: Dose response cell-based high-throughput screening assay for agonists of the transient receptor potential channel ML3 (TRPML3). [Related pubchem assays: 1526, 1424, 1448 ]; format: functional
Mucolipin-3, sequence (Q8TDD5 whole entry): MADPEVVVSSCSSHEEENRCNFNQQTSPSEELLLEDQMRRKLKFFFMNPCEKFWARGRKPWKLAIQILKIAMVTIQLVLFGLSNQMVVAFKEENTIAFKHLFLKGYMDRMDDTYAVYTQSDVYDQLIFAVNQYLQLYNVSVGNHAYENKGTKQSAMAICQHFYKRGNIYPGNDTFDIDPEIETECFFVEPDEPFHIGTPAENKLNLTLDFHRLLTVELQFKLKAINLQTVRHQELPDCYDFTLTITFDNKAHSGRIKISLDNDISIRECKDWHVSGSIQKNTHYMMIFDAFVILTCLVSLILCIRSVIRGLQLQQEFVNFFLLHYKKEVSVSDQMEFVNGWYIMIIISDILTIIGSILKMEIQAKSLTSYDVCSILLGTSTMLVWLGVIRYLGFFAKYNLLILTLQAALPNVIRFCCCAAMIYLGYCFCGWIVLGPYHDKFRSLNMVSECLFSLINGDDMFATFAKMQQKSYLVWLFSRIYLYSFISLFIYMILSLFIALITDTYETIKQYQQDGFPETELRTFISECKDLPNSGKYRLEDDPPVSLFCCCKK

[5] = molecular target: T3, Corticotropin-releasing factor receptor 2/Corticotropin-releasing factor-binding protein (Homo sapiens, UniProt P24387+Q13324); experiment: activators of CRF receptor 2 with binding protein – uHTS hits, confirmation (AID 602473); format: functional; conditions: read-out: EC50_Mean
T3 sequence (Q13324 whole entry): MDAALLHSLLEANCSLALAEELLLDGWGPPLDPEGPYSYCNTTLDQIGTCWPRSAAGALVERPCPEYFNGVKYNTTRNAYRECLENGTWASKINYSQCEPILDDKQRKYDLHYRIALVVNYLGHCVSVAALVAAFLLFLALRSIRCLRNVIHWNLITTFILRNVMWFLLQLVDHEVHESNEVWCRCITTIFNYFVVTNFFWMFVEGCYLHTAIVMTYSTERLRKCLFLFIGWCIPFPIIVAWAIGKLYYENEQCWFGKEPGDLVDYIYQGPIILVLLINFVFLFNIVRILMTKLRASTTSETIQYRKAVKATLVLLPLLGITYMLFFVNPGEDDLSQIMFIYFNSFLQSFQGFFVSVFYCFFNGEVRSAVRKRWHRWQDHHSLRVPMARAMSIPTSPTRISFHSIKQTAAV
T3 sequence (P24387 whole entry): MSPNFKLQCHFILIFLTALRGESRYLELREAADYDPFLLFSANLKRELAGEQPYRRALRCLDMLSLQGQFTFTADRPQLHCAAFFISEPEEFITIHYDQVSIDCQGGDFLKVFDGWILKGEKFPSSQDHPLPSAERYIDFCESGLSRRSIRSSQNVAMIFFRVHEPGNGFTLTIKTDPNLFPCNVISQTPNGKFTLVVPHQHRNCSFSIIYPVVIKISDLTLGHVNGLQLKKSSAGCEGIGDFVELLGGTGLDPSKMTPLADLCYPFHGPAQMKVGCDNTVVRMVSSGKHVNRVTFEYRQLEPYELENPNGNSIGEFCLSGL

[6] = molecular target: T4, Zinc finger protein mex-5 (Caenorhabditis elegans, UniProt Q9XUB2); experiment: potency of MEX-5 RNA-binding blockers – biochemical, C. elegans, fluorescence polarization, dose response (AID 1960)
T4 sequence (Q9XUB2 whole entry): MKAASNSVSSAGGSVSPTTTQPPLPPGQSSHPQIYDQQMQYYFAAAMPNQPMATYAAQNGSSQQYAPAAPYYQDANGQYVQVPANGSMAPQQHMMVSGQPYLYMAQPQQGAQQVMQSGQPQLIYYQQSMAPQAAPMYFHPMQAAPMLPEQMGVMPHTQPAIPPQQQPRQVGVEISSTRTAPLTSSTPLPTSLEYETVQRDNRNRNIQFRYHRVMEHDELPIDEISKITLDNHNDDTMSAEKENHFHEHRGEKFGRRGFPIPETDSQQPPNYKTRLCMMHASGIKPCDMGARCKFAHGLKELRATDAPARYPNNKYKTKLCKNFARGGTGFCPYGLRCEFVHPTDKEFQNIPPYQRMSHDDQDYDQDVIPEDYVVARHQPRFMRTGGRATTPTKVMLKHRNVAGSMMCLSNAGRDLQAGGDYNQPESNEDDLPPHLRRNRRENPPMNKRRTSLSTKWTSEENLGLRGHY

[7] = molecular target: T5, RNA-binding protein pos-1 (Caenorhabditis elegans, UniProt G5EF15); experiment: disruptors of C. elegans POS-1 RNA interaction – biochemical, fluorescence polarization, dose response (AID 1964);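 also: purified POS-1 fused to maltose binding protein made in E. coli; potency of compounds blocking POS-1 binding to fluorescent RNA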
T5 sequence (G5EF15 whole entry): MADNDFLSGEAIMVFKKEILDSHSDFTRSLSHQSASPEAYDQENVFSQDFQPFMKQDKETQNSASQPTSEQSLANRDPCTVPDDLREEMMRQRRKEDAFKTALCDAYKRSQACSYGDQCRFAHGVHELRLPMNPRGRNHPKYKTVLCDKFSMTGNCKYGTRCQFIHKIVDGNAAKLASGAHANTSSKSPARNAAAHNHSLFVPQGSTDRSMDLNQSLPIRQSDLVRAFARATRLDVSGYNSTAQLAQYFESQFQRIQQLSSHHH

HT-1080 = experiment: HT1080 cell viability loss – fluorescence readout (AID 620); format: functional, cell-based; conditions: Homo sapiens
[8] = molecular target: Luciferin 4-monooxygenase (Photinus pyralis, UniProt P08659); experiment: Counter Screen for Luciferase-based Assay Positives. [Related pubchem assays: 620, 618, 411 ]
Luciferin 4-monooxygenase, sequence (P08659 whole entry): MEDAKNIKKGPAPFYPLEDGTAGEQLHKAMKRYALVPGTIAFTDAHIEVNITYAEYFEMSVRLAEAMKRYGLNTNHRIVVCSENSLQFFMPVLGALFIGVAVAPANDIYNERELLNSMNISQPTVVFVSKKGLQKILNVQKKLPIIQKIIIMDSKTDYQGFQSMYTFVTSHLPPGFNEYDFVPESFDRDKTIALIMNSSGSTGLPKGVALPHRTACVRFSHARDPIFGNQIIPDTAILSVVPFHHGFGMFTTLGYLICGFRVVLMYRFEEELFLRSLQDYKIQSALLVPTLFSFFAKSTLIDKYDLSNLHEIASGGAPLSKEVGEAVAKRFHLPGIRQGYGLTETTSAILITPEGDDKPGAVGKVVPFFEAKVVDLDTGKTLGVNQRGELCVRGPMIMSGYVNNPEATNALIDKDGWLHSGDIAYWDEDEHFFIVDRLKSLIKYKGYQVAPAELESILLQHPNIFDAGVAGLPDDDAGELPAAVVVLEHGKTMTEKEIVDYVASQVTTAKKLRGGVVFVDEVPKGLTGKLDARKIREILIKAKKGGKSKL

| EC50 (Ion channel NompC) | EC50 (Mucolipin-3) | SMILES | IC50 [1] | IC50 [3] | further results |
| --- | --- | --- | --- | --- | --- |
| > 29.9 µM (not active) | 3.96 µM (active) | CC(C)[C@H](NS(=O)(=O)c1ccccc1)C(=O)OCC(=O)Nc1ccccc1Sc1ccccc1 |  |  |  |
| 9.35 µM (active) | 17.3 µM (not active) | COc1ccc(C(=O)CSc2nnn(-c3cccc(NC(C)=O)c3)n2)cc1 |  |  | EC50 [5]: 4.96 µM (active) |

Continued, compound first:

| SMILES | EC50 (Ion channel NompC) | EC50 (Mucolipin-3) | IC50 [1] | IC50 [3] | further results |
| --- | --- | --- | --- | --- | --- |
| CCCCCCCCCS(=O)(=O)N/N=C/c1cccc([N+](=O)[O-])c1 |  |  | > 35 µM (not active) | > 35 µM (not active) | EC50 (cells [2]): 23.7 µM (active); EC50 (cells [4]): > 350 µM (not active) |
| O=C1C2CC=C(Cl)CC2C(=O)N1CC1Cc2ccccc2CO1 (stereo not given) |  |  | 5.72 µM (active) | 7.82 µM (active) | EC50 [6]: 22 µM (active); EC50 [7]: 23 µM (active) |
| COc1ccc(S(=O)(=O)N2CCN(C(=O)CCC3CCCC3)CC2)cc1 |  |  |  |  | EC50 (HT-1080): > 50 µM (not active); EC50 [8]: 2.3 µM (active) |

From ChEMBL document CHEMBL1201862, “PubChem BioAssay data set” (2004)
